Assay results as given in patent US12459951B2, “Compounds that interact with RAS superfamily proteins for treatment of cancers, inflammatory diseases, rasopathies, and fibrotic disease” (SHY Therapeutics, LLC, priority 2022, dated 2025).
Where a name gives a salt, the structure may show the parent alone.

Assays:
IL6 = experiment: IL-6 Quantification Assay (ELISA), LPS-stimulated RAW 264.7; type: cell-based; design: inhibition: dose or concentration left out as unconfirmed; conditions: Mus musculus, RAW264.7; read-out: IL-6: % inh.
Rac-1 = target: T1, Rac-1 (Homo sapiens, UniProt P63000); experiment: Ras GTP Binding Domain Inhibition Assay (Ras Superfamily Assay); conditions: read-out: Rac-1: % inh.
T1 construct: made in house
Procedure, shortened: (§1)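 Binding of 100 nM fluorescent GTP (Cy3 or Cy5, 45 min, room temperature) was read after washes from plate-captured His-tagged protein. Beforehand, compounds at 20 μM or in dilution series for IC50 sat 3 h on the protein in Tris buffer pH 7.4 or 7.0 with 1% DMSO, Sos GEF optionally added for the last hour.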

KRas Q61H mutant = experiment: as above; conditions: 20 μM compound; for KRas Q61H mutant + SOS: % inh.: with SOS; for KRas Q61H mutant: % inh.: without SOS
Procedure, shortened: as §1

KRas G12C mutant = experiment: as above; conditions: 20 μM compound; for KRas G12C mutant + SOS: % inh.: with SOS; for KRas G12C mutant: % inh.: without SOS
Procedure, shortened: as §1

KRas G12D mutant = experiment: as above; conditions: 20 μM compound; for KRas G12D mutant + SOS: % inh.: with SOS; for KRas G12D mutant: % inh.: without SOS
Procedure, shortened: as §1

Rho-A = target: T2, Rho-A (Homo sapiens, UniProt P61586); experiment: as above; conditions: read-out: Rho-A: % inh..
T2 construct: made in house
Procedure, shortened: as §1

KRas wild type = experiment: as above; conditions: 20 μM compound; for KRas wild type + SOS: % inh.: with SOS; for KRas wild type: % inh.: without SOS
Procedure, shortened: as §1

TNF-alpha = TNF-alpha Quantification Assay (ELISA), LPS-stimulated RAW 264.7; type: cell-based; conditions: Mus musculus, RAW264.7; at 10 μM; read-out: TNFα: % inh.
Akt phosphorylation = experiment: Akt Phosphorylation Assay (western blot), Panc-1; type: cell-based, human; conditions: at 10 μM, * = activation
Procedure, shortened: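 Panc-1 (KRas G12D) cells were treated with compound at 10 μM final (0.3% DMSO) for 6 h at 37 °C, or with serial dilutions for IC50. Cells were either serum-starved overnight in 0.5% FBS and then stimulated with 1.5 ng/ml EGF for 15 min, or kept in 10% FBS without stimulation. Akt Ser473 phosphorylation in lysates was read by western blot.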

T2 sequence (P61586 whole entry): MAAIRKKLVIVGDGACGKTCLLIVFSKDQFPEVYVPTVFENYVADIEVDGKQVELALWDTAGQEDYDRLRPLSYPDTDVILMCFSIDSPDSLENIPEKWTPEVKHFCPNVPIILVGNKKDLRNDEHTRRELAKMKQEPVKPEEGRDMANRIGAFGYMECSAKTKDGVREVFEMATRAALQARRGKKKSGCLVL

In the case of `CO[C@H]1CC[C@@H](Nc2nc(-c3nccn3C)nn3cc(-c4ccn(C(C)C)n4)c(-c4ccccc4)c23)C1` (racemic) [Compound 18, rac 6-(1-Isopropyl-1H-pyrazol-3-yl)-N-((1R,3S)-3-methoxycyclopentyl)-2-(1-methyl-1H-imidazol-2-yl)-5-phenylpyrrolo[2,1-f][1,2,4]triazin-4-amine hydrochloride], the inhibition (IL6) is reported as 25 to 49%, the inhibition at 20 µM (Rac-1) is reported as 0% and the “KRas Q61H mutant + SOS: % inh.” value (KRas Q61H mutant) is reported as “A (A = 1-25% inhibition)”. The “KRas Q61H mutant: % inh.” value (KRas Q61H mutant) was 0 (0 = 0% inhibition), the “KRas G12C mutant + SOS: % inh.” value (KRas G12C mutant) was 0 (0 = 0% inhibition) and the “KRas G12C mutant: % inh.” value (KRas G12C mutant) was 0 (0 = 0% inhibition). For the same compound, the “KRas G12D mutant + SOS: % inh.” value (KRas G12D mutant) was 0 (0 = 0% inhibition), the “KRas G12D mutant: % inh.” value (KRas G12D mutant) was “A (A = 1-25% inhibition)” and the inhibition at 20 µM (Rho-A) was 1 to 25%. The “KRas wild type + SOS: % inh.” value (KRas wild type) was “A (A = 1-25% inhibition)”, the “KRas wild type: % inh.” value (KRas wild type) was “B (B = 26-49% inhibition)” and the inhibition at 10 µM (TNF-alpha) was 1 to 24%. For the same compound, the “% inh of Akt phosphorylation in Panc-1” value (Akt phosphorylation) was “D* (85-100% activation)”.

For `COC[C@@H]1CC[C@@H]1CNc1nc(-c2nccn2C)nn2cc(-c3ccn(C(C)C)n3)c(-c3ccccc3)c12` (racemic) [Compound 20, rac 6-(1-Isopropyl-1H-pyrazol-3-yl)-N-(((1S,2R)-2-(methoxymethyl)cyclobutyl)methyl)-2-(1-methyl-1H-imidazol-2-yl)-5-phenylpyrrolo[2,1-f][1,2,4]triazin-4-amine], the inhibition (IL6) was 75 to 100%, the inhibition at 20 µM (Rac-1) was 0% and the “KRas Q61H mutant + SOS: % inh.” value (KRas Q61H mutant) was 0 (0 = 0% inhibition). The “KRas Q61H mutant: % inh.” value (KRas Q61H mutant) was 0 (0 = 0% inhibition), the “KRas G12C mutant + SOS: % inh.” value (KRas G12C mutant) was 0 (0 = 0% inhibition) and the “KRas G12C mutant: % inh.” value (KRas G12C mutant) was “A (A = 1-25% inhibition)”. For the same compound, the “KRas G12D mutant + SOS: % inh.” value (KRas G12D mutant) was 0 (0 = 0% inhibition), the “KRas G12D mutant: % inh.” value (KRas G12D mutant) was “A (A = 1-25% inhibition)” and the inhibition at 20 µM (Rho-A) was 1 to 25%. For the same compound, the “KRas wild type + SOS: % inh.” value (KRas wild type) was “A (A = 1-25% inhibition)”, the “KRas wild type: % inh.” value (KRas wild type) was “A (A = 1-25% inhibition)” and the inhibition at 10 µM (TNF-alpha) was 1 to 24%. For the same compound, the “% inh of Akt phosphorylation in Panc-1” value (Akt phosphorylation) was “D (85-100% inhibition)”.

With `COCCO[C@H]1C[C@H](Nc2nc(-c3nccn3C)nn3cc(-c4ccn(C(C)C)n4)c(C)c23)C1` [Compound 92, 6-(1-Isopropyl-1H-pyrazol-3-yl)-N-((1r,3r)-3-(2-methoxyethoxy)cyclobutyl)-5-methyl-2-(1-methyl-1H-imidazol-2-yl)pyrrolo[2,1-f][1,2,4]triazin-4-amine] the inhibition (IL6) was 50 to 74%, the inhibition at 20 µM (Rac-1) was 1 to 25% and the “KRas Q61H mutant + SOS: % inh.” value (KRas Q61H mutant) was “A (A = 1-25% inhibition)”. The “KRas Q61H mutant: % inh.” value (KRas Q61H mutant) was 0 (0 = 0% inhibition), the “KRas G12C mutant + SOS: % inh.” value (KRas G12C mutant) was 0 (0 = 0% inhibition) and the “KRas G12C mutant: % inh.” value (KRas G12C mutant) was 0 (0 = 0% inhibition). For the same compound, the “KRas G12D mutant + SOS: % inh.” value (KRas G12D mutant) was “A (A = 1-25% inhibition)”, the “KRas G12D mutant: % inh.” value (KRas G12D mutant) was “A (A = 1-25% inhibition)” and the inhibition at 20 µM (Rho-A) was 1 to 25%. The “KRas wild type + SOS: % inh.” value (KRas wild type) was 0 (0 = 0% inhibition), the “KRas wild type: % inh.” value (KRas wild type) was 0 (0 = 0% inhibition) and the inhibition at 10 µM (TNF-alpha) was 1 to 24%. For the same compound, the “% inh of Akt phosphorylation in Panc-1” value (Akt phosphorylation) was “A* (1-25% activation)”.

In the case of `COc1cc(Nc2nc(-c3nccn3C)nn3cc(-c4ccn(C(C)C)n4)c(-c4ccccc4)c23)ncn1` [Compound 22, 6-(1-Isopropyl-1H-pyrazol-3-yl)-N-(6-methoxypyrimidin-4-yl)-2-(1-methyl-1H-imidazol-2-yl)-5-phenylpyrrolo[2,1-f][1,2,4]triazin-4-amine], the inhibition (IL6) is reported as 75 to 100%, the inhibition at 20 µM (Rac-1) is reported as 26 to 49% and the “KRas Q61H mutant + SOS: % inh.” value (KRas Q61H mutant) is reported as “A (A = 1-25% inhibition)”. For the same compound, the “KRas Q61H mutant: % inh.” value (KRas Q61H mutant) was “B (B = 26-49% inhibition)”, the “KRas G12C mutant + SOS: % inh.” value (KRas G12C mutant) was “A (A = 1-25% inhibition)” and the “KRas G12C mutant: % inh.” value (KRas G12C mutant) was “B (B = 26-49% inhibition)”. The “KRas G12D mutant + SOS: % inh.” value (KRas G12D mutant) was “B (B = 26-49% inhibition)”, the “KRas G12D mutant: % inh.” value (KRas G12D mutant) was “B (B = 26-49% inhibition)” and the inhibition at 20 µM (Rho-A) was 50 to 75%. The “KRas wild type + SOS: % inh.” value (KRas wild type) was “A (A = 1-25% inhibition)”, the “KRas wild type: % inh.” value (KRas wild type) was “B (B = 26-49% inhibition)” and the inhibition at 10 µM (TNF-alpha) was 0%. For the same compound, the “% inh of Akt phosphorylation in Panc-1” value (Akt phosphorylation) was “A* (1-25% activation)”.

For `COc1cccc(-c2cn3nc(-c4nccn4C)nc(N[C@@H]4CC[C@@H](OC)C4)c3c2-c2ccccc2)c1Cl.Cl` (racemic) [Compound 34, rac 6-(2-Chloro-3-methoxyphenyl)-N-((1R,3R)-3-methoxycyclopentyl)-2-(1-methyl-1H-imidazol-2-yl)-5-phenylpyrrolo[2,1-f][1,2,4]triazin-4-amine hydrochloride], the inhibition (IL6) was 75 to 100%, the inhibition at 20 µM (Rac-1) was 26 to 49% and the “KRas Q61H mutant + SOS: % inh.” value (KRas Q61H mutant) was 0 (0 = 0% inhibition). For the same compound, the “KRas Q61H mutant: % inh.” value (KRas Q61H mutant) was 0 (0 = 0% inhibition), the “KRas G12C mutant + SOS: % inh.” value (KRas G12C mutant) was “A (A = 1-25% inhibition)” and the “KRas G12C mutant: % inh.” value (KRas G12C mutant) was 0 (0 = 0% inhibition). The “KRas G12D mutant + SOS: % inh.” value (KRas G12D mutant) was 0 (0 = 0% inhibition), the “KRas G12D mutant: % inh.” value (KRas G12D mutant) was 0 (0 = 0% inhibition) and the inhibition at 20 µM (Rho-A) was 1 to 25%. For the same compound, the “KRas wild type + SOS: % inh.” value (KRas wild type) was “A (A = 1-25% inhibition)”, the “KRas wild type: % inh.” value (KRas wild type) was 0 (0 = 0% inhibition) and the inhibition at 10 µM (TNF-alpha) was 1 to 24%. For the same compound, the “% inh of Akt phosphorylation in Panc-1” value (Akt phosphorylation) was “D (85-100% inhibition)”.

`Cc1c(-c2ccn(C(C)C)n2)cn2nc(-c3nccn3C)nc(Nc3noc(C4CC4)n3)c12` [Compound 75, 5-Cyclopropyl-N-(6-(1-isopropyl-1H-pyrazol-3-yl)-5-methyl-2-(1-methyl-1H-imidazol-2-yl)pyrrolo[2,1-f][1,2,4]triazin-4-yl)-1,2,4-oxadiazol-3-amine] was tested, and the inhibition (IL6) was 1 to 24%, the inhibition at 20 µM (Rac-1) was 26 to 49% and the “KRas Q61H mutant + SOS: % inh.” value (KRas Q61H mutant) was “B (B = 26-49% inhibition)”. For the same compound, the “KRas Q61H mutant: % inh.” value (KRas Q61H mutant) was “A (A = 1-25% inhibition)”, the “KRas G12C mutant + SOS: % inh.” value (KRas G12C mutant) was “A (A = 1-25% inhibition)” and the “KRas G12C mutant: % inh.” value (KRas G12C mutant) was “A (A = 1-25% inhibition)”. For the same compound, the “KRas G12D mutant + SOS: % inh.” value (KRas G12D mutant) was “A (A = 1-25% inhibition)”, the “KRas G12D mutant: % inh.” value (KRas G12D mutant) was “B (B = 26-49% inhibition)” and the inhibition at 20 µM (Rho-A) was 50 to 75%. For the same compound, the “KRas wild type + SOS: % inh.” value (KRas wild type) was “A (A = 1-25% inhibition)”, the “KRas wild type: % inh.” value (KRas wild type) was “A (A = 1-25% inhibition)” and the inhibition at 10 µM (TNF-alpha) was 1 to 24%. For the same compound, the “% inh of Akt phosphorylation in Panc-1” value (Akt phosphorylation) was “A* (1-25% activation)”.

In the case of `COC[C@@H]1CC[C@@H]1CNc1nc(-c2nccn2C)nn2cc(-c3ccn(C(C)C)n3)c(C)c12` (racemic) [Compound 3, rac 6-(1-Isopropyl-1H-pyrazol-3-yl)-N-(((1S,2R)-2-(methoxymethyl)cyclobutyl)methyl)-5-methyl-2-(1-methyl-1H-imidazol-2-yl)pyrrolo[2,1-f][1,2,4]triazin-4-amine], the inhibition (IL6) is reported as 50 to 74%, the inhibition at 20 µM (Rac-1) is reported as 1 to 25% and the “KRas Q61H mutant + SOS: % inh.” value (KRas Q61H mutant) is reported as 0 (0 = 0% inhibition). For the same compound, the “KRas Q61H mutant: % inh.” value (KRas Q61H mutant) was 0 (0 = 0% inhibition), the “KRas G12C mutant + SOS: % inh.” value (KRas G12C mutant) was 0 (0 = 0% inhibition) and the “KRas G12C mutant: % inh.” value (KRas G12C mutant) was 0 (0 = 0% inhibition). For the same compound, the “KRas G12D mutant + SOS: % inh.” value (KRas G12D mutant) was 0 (0 = 0% inhibition), the “KRas G12D mutant: % inh.” value (KRas G12D mutant) was 0 (0 = 0% inhibition) and the inhibition at 20 µM (Rho-A) was 0%. The “KRas wild type + SOS: % inh.” value (KRas wild type) was 0 (0 = 0% inhibition), the “KRas wild type: % inh.” value (KRas wild type) was 0 (0 = 0% inhibition) and the inhibition at 10 µM (TNF-alpha) was 25 to 49%. For the same compound, the “% inh of Akt phosphorylation in Panc-1” value (Akt phosphorylation) was “B (26-49% inhibition)”.
